Laboratory results taken from US8940705B2, “Method of treating disease and selectively modulating transcriptional regulation by a glucocorticoid receptor by administering aclacinomycin and dexamethasone” (The Regents of the University of California, priority 2009, dated 2015).

Tests used:
[1] = system: genes that are regulated by glucocorticoids; test: In vivo screening: qPCR of glucocorticoid-regulated genes in mouse tissues; conditions: mice, 7.5 mg/kg aclacinomycin, one hour later 2.5 mg/kg dexamethasone, tissues after 6 hours
Protocol: Mice were injected with 7.5 mg/kg aclacinomycin. One hour later, mice were injected with 2.5 mg/kg dexamethasone. After 6 hours, lungs, liver, heart and skeletal muscle were harvested for RNA preparation. qPCR was performed on isolated RNA from these tissues to analyze expression levels of various genes that are regulated by glucocorticoids.

GR [2] = biological target: T1, GR (Homo sapiens, UniProt P04150); test: Luciferase assays, GR-responsive reporters, A549 cells; format: cell-based; set-up: endogenous in cells; host or cells: A549; conditions: for GR activity (GR-mediated induction of pENaC-luc reporter): pENaC-luc and pSV40-rl; for Dose dependent: whether the drug acted dose-dependently on GR-luciferase reporters
T1 sequence (P04150 1-777): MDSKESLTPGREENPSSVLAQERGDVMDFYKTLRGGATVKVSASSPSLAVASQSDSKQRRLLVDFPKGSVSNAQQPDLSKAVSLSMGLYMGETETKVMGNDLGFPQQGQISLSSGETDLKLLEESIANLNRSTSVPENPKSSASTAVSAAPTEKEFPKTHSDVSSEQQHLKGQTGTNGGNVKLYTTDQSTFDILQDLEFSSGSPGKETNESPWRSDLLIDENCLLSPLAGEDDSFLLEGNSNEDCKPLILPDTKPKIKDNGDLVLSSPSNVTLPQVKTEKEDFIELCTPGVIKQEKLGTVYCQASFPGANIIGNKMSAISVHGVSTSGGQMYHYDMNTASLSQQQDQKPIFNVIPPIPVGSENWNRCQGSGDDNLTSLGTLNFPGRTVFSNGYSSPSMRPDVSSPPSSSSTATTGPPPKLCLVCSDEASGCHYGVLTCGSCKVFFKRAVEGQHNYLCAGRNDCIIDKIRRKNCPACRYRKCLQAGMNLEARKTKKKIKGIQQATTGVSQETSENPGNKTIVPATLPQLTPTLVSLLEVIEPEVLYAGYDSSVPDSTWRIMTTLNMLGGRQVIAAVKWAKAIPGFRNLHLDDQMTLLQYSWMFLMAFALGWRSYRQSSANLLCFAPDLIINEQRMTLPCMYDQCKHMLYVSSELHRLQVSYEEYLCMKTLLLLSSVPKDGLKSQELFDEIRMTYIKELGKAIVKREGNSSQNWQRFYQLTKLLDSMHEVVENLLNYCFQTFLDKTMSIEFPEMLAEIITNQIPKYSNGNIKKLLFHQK
Protocol: (§1) Transfections. The day prior to transfection, ˜3×10^5 cells were plated in 6-well dishes. Transfections used Lipofectamine 2000 (Invitrogen). 4 μg of total plasmid DNA were used for each transfection. For A549 cells, 500 μL of DNA/lipofectamine complex was added to 1.5 ml of DMEM with pen/strep and 5% FBS. For U2OS cells, 500 μl of DNA/lipofectamine complex was added to 1.5 ml of Optimem. After 3-4 hours of incubation, media was replaced with standard growth media.
(§2) Luciferase assays. Luciferase assays used the Promega Dual-Luciferase Reporter system. Briefly, cells were transfected with various firefly luciferase plasmids and pSV40-RL at a ratio of 10:1. The day after transfection, cells were split into 96-well dishes and treated with dex and various drugs. Cells were harvested in 50 μl 1XPLB (Promega) 12-18 hr after drug treatment and luciferase assays were performed on 10 μl of lysate. Luminscence was detected using an Ultra Evolution plate reader (Tecan).

GR [3] = biological target: T1, GR; test: qPCR of endogenous GR target genes, A549 cells; format: cell-based; set-up: endogenous in cells; host or cells: A549; conditions: with dex, RPL19 reference
Source text: (§3) Quantitative PCR. Total RNA isolation used Trizol and Pure Link (Invitrogen). […] Rpl19 expression was used for data normalization.

GR [4] = biological target: T1, GR; test: Multi-promoter fluorescent protein reporter compound screen for GR modulators; format: cell-based; set-up: endogenous in cells; host or cells: A549; conditions: A549 cells, library compounds 2.5 μM with dex 100 nM; reporter fluorescence relative to plate mean
Protocol: Compound Screen. A549 cells were transfected with an equal mixture of pENaC-CFP, pGILZ-YFP, pFKBP5-OFP (1.3 μg each), or with pSV40-ChFP (4 μg). The next day, cells were mixed (˜1.8×10^4 of the cells triple-transfected with pENaC-CFP, pGILZ-YFP, pFKBP5-OFP; ˜2×10^3 cells transfected with pSV40-ChFP) and replated into 96 well plates (Costar 3603). 2 hours later, library compounds (2.5 μM) and dex (100 nM) were added using a Biomek robot. The following day, cells were fixed for 4 minutes in 4% paraformaldehyde and fluorescence was measured sequentially for each reporter using a Safire plate reader (Tecan). Hits were scored based on the mean and standard deviation (s.d.) of the experimental wells on each plate. Criteria for a hit were if one reporter was more than 1.5×s.d. from the mean in duplicate, or if two reporters were more than 0.8×s.d. from the mean in duplicate. If the control SV40-ChFP was more than 2×s.d. from the mean in a single plate, or 0.8×s.d. in duplicate plates (in the same direction as the GR reporters), the well was not scored as a hit.
We used the system of Example 1 to screen a library of 1040 natural products and FDA-approved drugs for modulators of GR signaling (Abbott, A. Nature 417:109). The screen design is outlined in FIG. 2. The pENaC-CFP, pGILZ-YFP, and pFKBP5-OFP reporters indicated GR signaling, while pSV40-mCh, an internal control, excluded non-specific transcription inhibitors and toxins. We screened the library in duplicate in the presence of saturating dex (100 nM). Z′, a function that reflects the ability to discriminate between control and experimental wells (Zhang, J. H. et al., J Biomol Screen 4:67-73 (1999)), was determined for dex treatment of each GR reporter. The Z′ values were: Z′(ENAC-CFP)=0.68; Z′(GILZ-YFP)=0.64; and Z′(FKBP5-OFP)=0.66. These indicate that the screen should efficiently identify compounds that increase or decrease fluorescence from any of the three experimental promoters (Zhang, J. H. et al., J Biomol Screen 4:67-73 (1999)).

GR [5] = biological target: T2, GR (Rattus norvegicus, UniProt P06536); test: Luciferase assays, GR-responsive reporters, U2OS-GR cells; format: cell-based; conditions: pENaC-luc and pSV40-rl, with dex
T2 construct: expressed in transfected cells; host or cells: U2OS-GR
T2 sequence (P06536 1-795): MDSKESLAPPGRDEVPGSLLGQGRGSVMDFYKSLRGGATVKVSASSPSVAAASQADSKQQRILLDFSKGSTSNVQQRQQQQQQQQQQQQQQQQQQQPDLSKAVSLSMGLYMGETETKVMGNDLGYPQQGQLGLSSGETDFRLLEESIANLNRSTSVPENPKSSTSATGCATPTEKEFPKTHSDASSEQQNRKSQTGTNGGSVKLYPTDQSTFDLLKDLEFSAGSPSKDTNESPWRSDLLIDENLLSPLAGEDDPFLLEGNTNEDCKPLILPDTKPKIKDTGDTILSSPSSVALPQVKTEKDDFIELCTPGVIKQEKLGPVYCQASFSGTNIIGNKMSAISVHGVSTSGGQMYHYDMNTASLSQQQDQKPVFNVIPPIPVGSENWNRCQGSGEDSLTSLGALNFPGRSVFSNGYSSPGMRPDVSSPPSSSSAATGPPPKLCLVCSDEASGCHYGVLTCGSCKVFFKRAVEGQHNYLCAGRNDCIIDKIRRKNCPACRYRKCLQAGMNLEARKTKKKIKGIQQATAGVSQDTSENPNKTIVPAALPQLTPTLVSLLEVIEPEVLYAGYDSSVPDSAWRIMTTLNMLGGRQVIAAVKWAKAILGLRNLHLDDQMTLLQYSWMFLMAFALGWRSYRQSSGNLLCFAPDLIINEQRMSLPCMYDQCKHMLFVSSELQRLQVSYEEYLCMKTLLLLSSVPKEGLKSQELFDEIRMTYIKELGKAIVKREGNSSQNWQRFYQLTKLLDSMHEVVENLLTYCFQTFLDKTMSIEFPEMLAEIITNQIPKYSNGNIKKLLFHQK
Protocol: as §1, §2

GR [6] = test: qPCR of endogenous GR target genes, cell line not distinguished (FIG. 4B, 5D); format: cell-based; conditions: with dex, 24 hr
Source text: as §3

androgen receptor (AR) = androgen receptor (AR) (Homo sapiens, UniProt P10275); conditions: Hieronymus et al., Cancer Cell 10:321-330 (2006); cited from earlier work
Sequence of androgen receptor (AR) (P10275 whole entry, species assumed): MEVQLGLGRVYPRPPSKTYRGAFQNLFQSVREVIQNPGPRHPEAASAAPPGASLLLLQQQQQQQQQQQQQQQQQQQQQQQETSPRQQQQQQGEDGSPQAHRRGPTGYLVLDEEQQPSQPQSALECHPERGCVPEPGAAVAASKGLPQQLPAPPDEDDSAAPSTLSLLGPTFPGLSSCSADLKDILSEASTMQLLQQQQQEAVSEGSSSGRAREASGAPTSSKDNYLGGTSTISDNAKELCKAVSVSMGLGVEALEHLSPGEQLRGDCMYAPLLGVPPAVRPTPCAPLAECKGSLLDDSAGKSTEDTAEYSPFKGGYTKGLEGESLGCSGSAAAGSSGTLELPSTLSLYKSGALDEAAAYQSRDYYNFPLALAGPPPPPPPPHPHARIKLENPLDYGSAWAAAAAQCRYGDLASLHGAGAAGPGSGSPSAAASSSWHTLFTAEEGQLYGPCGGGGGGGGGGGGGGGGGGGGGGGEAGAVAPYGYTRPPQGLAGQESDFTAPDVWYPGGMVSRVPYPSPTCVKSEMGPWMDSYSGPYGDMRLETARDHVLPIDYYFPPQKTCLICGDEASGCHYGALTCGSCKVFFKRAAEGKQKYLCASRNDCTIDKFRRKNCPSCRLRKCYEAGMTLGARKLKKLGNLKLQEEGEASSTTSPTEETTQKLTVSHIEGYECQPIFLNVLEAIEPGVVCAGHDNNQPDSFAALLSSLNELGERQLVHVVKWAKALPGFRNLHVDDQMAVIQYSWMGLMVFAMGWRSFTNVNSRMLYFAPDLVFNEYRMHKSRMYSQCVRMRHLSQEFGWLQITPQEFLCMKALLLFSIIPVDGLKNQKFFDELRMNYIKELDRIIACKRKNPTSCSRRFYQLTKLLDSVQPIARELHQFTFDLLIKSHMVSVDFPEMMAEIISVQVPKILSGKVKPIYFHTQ

RNA synthesis = conditions: Long et al., Mol Pharmacol 22:152-7 (1982); cited from earlier work

Compound | activation of FKBP5 by dexamethasone ([1]; liver and lung (FIGS. 6-7)) | activation of KLF15 by dexamethasone ([1]; lung (FIG. 8)) | repression of the cytokine CCL2 by dexamethasone ([1]; lung (FIG. 9)) | pSV40-luc activity (GR [2]; A549 cells, low doses of Acl, dex-unresponsive reporter) | GR activity (GR-mediated induction of pENaC-luc reporter) (GR [2]; A549 cells, with dex) | effect on GR-dependent reporter pENaC-luc compared with GR-independent constitutive reporter pSV40-rl (GR [2]; A549 cells, with dex) | Dose dependent (GR [2]) | expression of endogenous GR target genes (relative mRNA, qPCR) (GR [3]) | ENaC-CFP (GR [4]) | FKBP5-OFP (GR [4]) | GILZ-YFP (GR [4]) | GR activity (luciferase reporter) (GR [5]) | Dose dependent (GR [2]; listed as pararosaniline) | expression of endogenous GR target genes (qPCR), overall (GR [6]) | induction of endogenous ENaC (qPCR) (GR [6]) | androgen receptor (AR) signaling (androgen receptor (AR)) | IC50 for inhibition of RNA synthesis, compared with aclacinomycin (RNA synthesis)
CC[C@@]1(O)C[C@H](O[C@H]2C[C@H](N(C)C)[C@H](O[C@H]3C[C@H](O)[C@H](O[C@H]4CCC(=O)[C@H](C)O4)[C@H](C)O3)[C@H](C)O2)c2c(cc3c(c2O)C(=O)c2c(O)cccc2C3=O)[C@H]1C(=O)OC [Aclacinomycin] | blocked the activation | blocked the activation | did not inhibit repression | Increases | antagonists of GR | reduced GR activation of pENaC-luc much more than the constitutive reporter | yes | inhibited GR at the tested promoters | ↓↓↓^b (more than 2 standard deviations (s.d.) less than the mean (↓↓↓)) | ↓↓↓ (more than 2 standard deviations (s.d.) less than the mean (↓↓↓)) | ↓↓↓ (more than 2 standard deviations (s.d.) less than the mean (↓↓↓)) | inhibited GR |  |  |  |  | 
N=C1C=CC(=C(c2ccc(N)cc2)c2ccc(N)cc2)C=C1 [Pararosaniline] |  |  |  |  |  |  | yes |  | ↓ (0.8 to 2 s.d. less than the mean (↓)) | No effect | ↓ (0.8 to 2 s.d. less than the mean (↓)) |  | dose dependent effects | selectively modulated endogenous GR target genes | selectively inhibited the induction of endogenous ENaC transcription in comparison to FKBP5 | inhibit | 
CC[C@@]1(O)C[C@H](O[C@H]2C[C@H](N(C)C)[C@H](O[C@H]3C[C@H](O)[C@H](O[C@H]4C[C@H](O)[C@H](O)[C@H](C)O4)[C@H](C)O3)[C@H](C)O2)c2c(cc3c(c2O)C(=O)c2c(O)ccc(O)c2C3=O)[C@H]1C(=O)OC [marcellomycin] |  |  |  |  | no impact on GR-mediated induction of the reporter |  |  |  |  |  |  |  |  |  |  |  | similar
